Patent publication US8293979B2, “Weed controller metabolism proteins, genes, thereof and use of the same” (Sumitomo Chemical Company, Limited, priority 2001, dated 2012)

What was measured:
[1] = test system: present invention protein (A22); assay: Detection of the ability to convert compound (II) to compound (III), E. coli pKSN1558BF extract; type: in vitro ADME, Streptomyces pallidus IFO 13434T; settings: 3 ppm of compound (II) labeled with 14C, components A, B, 10 minutes at 30° C.
Protocol: (§1) Reaction solutions of 30 μl were prepared and maintained for 10 minutes at 30° C. The reaction solutions consisted of a 0.1M potassium phosphate buffer (pH7.0) containing 3 ppm of compound (II) labeled with ^14C, 2 mM of β-NADPH (hereinafter, referred to as “component A”) (Oriental Yeast Company), 2 mg/ml of a ferredoxin derived from spinach (hereinafter referred to as “component B”) (Sigma Company), 0.1 U/ml of ferredoxin reductase (hereinafter, referred to as “component C”) (Sigma Company) and 23 μl of the supernatant fraction recovered in Example 32(2). Similarly to Example 4(3), the reaction solutions after the maintenance were extracted with ethyl acetate and the extracted layers were TLC analyzed. […] A spot corresponding to compound (III) was detected from the reaction solution containing E. coli pKSN849AF extract. In contrast, such a spot was not detected from the reaction solution containing E. coli pKSN2 extract.
(§2) Similarly to Example 32(3), reaction solutions of 30 μl were prepared and maintained for 10 minutes at 30° C. […] The reaction solutions after the maintenance were extracted with ethyl acetate and the extracted layers were TLC analyzed. […] A spot corresponding to compound (III) was detected from the reaction solution containing E. coli pKSN1558BF extract. In contrast, such a spot was not detected from the reaction solution containing E. coli pKSN2 extract.

Barnyardgrass = assay: Herbicidal activity test, soil surface treatment; type: in vivo, Echinochloa crus-galli; parameters: key: 0: situations in which the condition of sprouting or vegetation at the time of examination of the plant utilized for the test was compared with and showed totally or substantially no difference with that of the untreated application; 10: situations in which the plant completely withered or the sprouting or vegetation was completely suppressed; settings: 500 g/ha, sprayed onto the surface of the soil after seeding, investigated after 19 days in a greenhouse
Protocol: Soil was packed into a round plastic pot having a diameter of 10 cm and depth of 10 cm. Barnyardgrass, Blackgrass, Ivyleaf morningglory were seeded. Five (5) parts of the test compound, 6 parts of sorpol3005X (Toho Chemical Company) and 89 parts of xylene were well mixed to produce an emulsion. A certain amount thereof was diluted with water containing 0.1% (v/v) of a sticking agent at a proportion of 1000 L for 1 hectare and was spread uniformly with a spray-gun onto the surface of the soil. After cultivating the plants for 19 days in a greenhouse, the herbicidal activity was investigated.
In the above Tables 3 and 4, the strength of the herbicidal activity is shown stepwise as 0, 1, 2, 3, 4, 5, 6, 7, 8, 9, and 10.

[2] = test system: present invention protein (A23); assay: Detection of the ability to convert compound (II) to compound (III), E. coli pKSN1584F extract; type: in vitro ADME, Streptomyces roseorubens IFO 13682T; settings: 3 ppm of compound (II) labeled with 14C, components A, B, 10 minutes at 30° C.
Protocol: as §1
as §2, with “pKSN1584F” for “pKSN1558BF”

[3] = test system: present invention protein (A17); assay: Detection of the ability to convert compound (II) to compound (III), E. coli pKSN608F extract; type: in vitro ADME, Streptomyces griseus ATCC 10137; settings: 3 ppm of compound (II) labeled with 14C, components A, B, 10 minutes at 30° C.
Protocol: as §1
as §2, with “pKSN608F” for “pKSN1558BF”

[4] = test system: present invention protein (A25); assay: Detection of the ability to convert compound (II) to compound (III), E. coli pKSN1609F extract; type: in vitro ADME, Streptomyces steffisburgensis IFO 13446T; settings: 3 ppm of compound (II) labeled with 14C, components A, B, 10 minutes at 30° C.
Protocol: as §1
as §2, with “pKSN1609F” for “pKSN1558BF”

[5] = test system: present invention protein (A24); assay: Detection of the ability to convert compound (II) to compound (III), E. coli pKSN1589BF extract; type: in vitro ADME, Streptomyces rutgersensis IFO 15875T; settings: 3 ppm of compound (II) labeled with 14C, components A, B, 10 minutes at 30° C.
Protocol: as §1
as §2, with “pKSN1589BF” for “pKSN1558BF”

[6] = test system: present invention protein (A22); assay: Metabolism of compounds by the present invention protein (A22), reaction solution, HPLC; type: in vitro ADME, Streptomyces pallidus IFO 13434T; settings: 12.5 ppm of compound, components A, B, C, 20 μl supernatant fraction of Example 61(2), 30° C. for 10 minutes

C[C@@H](Oc1cc(-n2c(=O)cc(C(F)(F)F)n(C)c2=O)c(F)cc1Cl)C(=O)O [compound (II)]
spot corresponding to compound (III) labeled with 14C (TLC) [1]: detected
Herbicidal Activity Barnyardgrass (Barnyardgrass): 10
spot corresponding to compound (III) labeled with 14C (TLC) [2]: detected
spot corresponding to compound (III) labeled with 14C (TLC) [3]: detected
spot corresponding to compound (III) labeled with 14C (TLC) [4]: detected
spot corresponding to compound (III) labeled with 14C (TLC) [5]: detected

Cn1c(C(F)(F)F)cc(=O)n(-c2cc(Oc3cccnc3OCC(=O)O)c(Cl)cc2F)c1=O [compound (XII)]
concentration of the compound detected from metabolism solution (A22) compared to control solution (A22) [6]: lower
